Experimental findings from patent US12144791B2, “KRAS agonists, pharmaceutical compositions, and uses in managing cancer” (Emory University, priority 2019, dated 2024) are described below.

Test [1] concerns the target T1, KRAS G12C (Homo sapiens, UniProt P01116, G12C). Kind of test: In vitro cell-free GDP-GTP exchange, KRAS G12C. Format: biochemical. The conditions noted are these: with GEF (RASGRP1) and GAP (RASA1), 25° C., 60 min. Here is the method:
GTPγS, purified GFP (RASGRP1, 180 nM) and GAP (RASA1, 180 nM) at 25° C. in the presence or absence of increasing concentrations of KRA-533.
(§1) To test whether KRA-533 directly binds to KRAS, a thermal shift assay was employed. […] To further assess whether KRA-533 activates KRAS directly, an in vitro cell-free GDP-GTP exchange experiment was carried out. Purified WT, G12C, G12D or G13D mutant KRAS proteins were incubated with purified GEF (RASGRP1) and GAP (RASA1) proteins in reaction buffer containing [γ-35S]-GTP in the absence or presence of increasing concentrations of KRA-533 at 25° C. for 60 min. KRAS activity was quantified by liquid scintillation counting. […] These findings indicate that KRA-533 not only activates WT KRAS but also has the capacity to further enhance KRAS activity of mutant KRAS.

The subject of another test is A549 cells. Kind of test: Apoptotic and autophagic cell death after KRAS shRNA knockdown. Format: cell-based, human. The conditions noted are these: G12S mutant KRAS depleted by KRAS shRNA; 15 μM, 48 h. The protocol:
To further test whether KRAS is a required target for KRA-533 to induce apoptotic and autophagic cell death, G12S mutant KRAS was depleted using KRAS shRNA from A549 cells, followed by treatment with KRA-533 (15 μM) for 48 h.

Test [2] deals with lung tumors of LSL-KRASG12D LKB1fl/fl (KL) mice. The experiment in a line: Genetically engineered LSL-KRASG12D LKB1fl/fl (KL) mouse model. Format: in vivo. Here is the method:
After administration of adenovirus Cre recombinase in KL mice for 6 weeks, mice were treated with KRA-533 (20 mg/kg/d) for 8 weeks (n=6 each group). Survival of mice was calculated up to 8 weeks before euthanization in the control group versus the KRA-533 treatment group.
It is reported that the co-occurrence of KRAS and LKB1(STK11) mutations could label a more aggressive molecular subtype of NSCLC. Around half of KRAS-mutant lung cancer patients also carry LKB1 mutations, therefore, it will be important to test whether KRA-533 is also effective for the treatment of KRAS-mutant lung cancers with mutation or loss. LSL-KRASG12D LKB1fl/fl (KL) mice were generated by intercrossing B6.129S4-Krastm3Tyj/J (KRASG12D) and FVB; 129S6-Stk11tm1Rdp/Nci (LKB1) strains two generations and genotyped to confirm homozygosity for the LKB1 allele. These mice contain a KRASG12D LSL knock-in allele and a floxed allele of LKB1 (LKB1fl/fl). KRA-533 (20 mg/kg/d) or vehicle control was administered i.p. starting at 6 weeks post AdeCre delivery. After treatment for 8 weeks, mice were euthanized, and lung tumors were analyzed as described above.

Test [3] concerns the target T1, KRAS G12C. Kind of test: Thermal shift assay, purified KRAS G12C. The conditions noted are these: increasing concentrations. Format: binding. The protocol:
Melting temperature (Tm) values of DMSO Ctrl and 15 μM of KRA-533 are shown.
as §1

A further test addresses T2, KRAS S17A (Homo sapiens, UniProt P01116, S17A).
T2 construct: made in house
Kind of test: In vitro cell-free GDP-GTP exchange, KRAS S17A. The conditions noted are these: 15 μM. Format: biochemical. Here is the method:
GTPγS, purified GFP (RASGRP1, 180 nM) and GAP (RASA1, 180 nM) at 25° C. in the presence or absence of 15 μM KRA-533. The radioactivity remaining on the protein after intensive washing was quantified by liquid scintillation.
To further test this intracellularly, GFP-tagged WT, S17A, K117A and AA KRAS mutants were exogenously transfected into A549 cells. […] Activities of exogenous GFP-tagged WT and KRAS mutants were analyzed by Western blot using GFP antibody.

For `O=C(CBr)NCCCCc1ccc(C(=O)O)cc1` [KRA-533, 4-(4-(2-bromoacetamido)butyl)benzoic acid], the “KRAS activity (liquid scintillation), KRAS G12C” value at KRAS G12C [1] is “further enhanced the activities of active KRAS mutants”. In the test on A549 cells, the “cell sensitivity to apoptotic and autophagic cell death after knockdown of mutant KRAS” value was “significantly reduced cell sensitivity to the induction of apoptotic and autophagic cell death”. The tumor growth entry in test [2] (20 mg/kg/d i.p. from 6 weeks post AdeCre, 8 weeks) is listed as “significantly suppressed tumor growth”. The survival entry in test [2] (20 mg/kg/d i.p., up to 8 weeks) is on record as “prolonged survival”. The “melting temperature (Tm) / binding, KRAS G12C” value at KRAS G12C [3] is recorded as “Dose dependent increases in melting temperature (Tm)”. Further, the “KRAS activity (liquid scintillation), KRAS S17A” value on KRAS S17A was “directly activated”.
